From the CheMixHub viscosity set

Experiment: xn = mol fraction of the nth substance listed

COC(=O)CC(C)=O + CCCO
viscosity [mPa·s], 101.3 kPa
Settings	x1 = 0.1028	x1 = 0.2021	x1 = 0.3067	x1 = 0.407	x1 = 0.5069	x1 = 0.609	x1 = 0.7057	x1 = 0.8054	x1 = 0.9036
298.15 K	1.497	1.333	1.253	1.221	1.219	1.238	1.278	1.339	1.501
303.15 K	1.337	1.213	1.128	1.102	1.104	1.123	1.163	1.217	1.295
308.15 K	1.198	1.096	1.024	1.003	1.007	1.027	1.062	1.114	1.183

CS(=O)(=O)[O-].C[N+](C)(CCO)CCO + CCCO
Settings	viscosity [mPa·s]
298.15 K, 101.33 kPa, x1 = 0.8978	965

Clc1cccc(Cl)c1 + CCNc1ccccc1
viscosity [mPa·s], 101 kPa
Settings	303.15 K	308.15 K
x2 = 0.0725	1.021	0.954
x2 = 0.1256	1.069	0.996
x2 = 0.1956	1.134	1.051
x2 = 0.2687	1.2	1.108
x2 = 0.3369	1.258	1.157
x2 = 0.4056	1.315	1.205
x2 = 0.4856	1.38	1.259
x2 = 0.5598	1.437	1.308
x2 = 0.6235	1.485	1.347
x2 = 0.6925	1.536	1.389
x2 = 0.7759	1.594	1.436
x2 = 0.8596	1.651	1.482
x2 = 0.9125	1.687	1.511

CCCCCCCCn1cc[n+](C)c1.[Cl-] + CCO
Settings	viscosity [mPa·s]
298.15 K, 101 kPa, x2 = 0.1305	5426

CCOc1ccccc1 + CCO
298.15 K, 101 kPa
Settings	viscosity [mPa·s]
x2 = 0.3183	1.067
x2 = 0.5186	1.035
x2 = 0.6605	1.01
x2 = 0.764	0.997
x2 = 0.8437	0.991
x2 = 0.9064	1
x2 = 0.9609	1.035

COC(=O)CC(C)=O + CCO
viscosity [mPa·s], 101.3 kPa
Settings	x1 = 0.1051	x1 = 0.204	x1 = 0.3085	x1 = 0.4046	x1 = 0.507	x1 = 0.607	x1 = 0.7033	x1 = 0.8022	x1 = 0.902
298.15 K	0.96	0.942	0.965	0.995	1.057	1.121	1.202	1.3	1.422
303.15 K	0.879	0.866	0.883	0.913	0.968	1.027	1.099	1.187	1.294
308.15 K	0.806	0.798	0.814	0.841	0.892	0.946	1.011	1.092	1.186

CS(=O)(=O)[O-].C[N+](C)(CCO)CCO + CCO
Settings	viscosity [mPa·s]
298.15 K, 101.33 kPa, x1 = 0.8954	947.5

OCC(O)CO + CCO
298.15 K, 101 kPa
Settings	viscosity [mPa·s]
x1 = 0.053	1.52
x1 = 0.11	2.23
x1 = 0.18	3.49
x1 = 0.25	5.83
x1 = 0.33	10.4
x1 = 0.43	20.6
x1 = 0.54	45.3
x1 = 0.67	103.3
x1 = 0.82	254
